The record followed here is patent US8895069B2, “Drug delivery system using hyaluronic acid-peptide conjugate micelle” (Postech Academy-Industry Foundation, priority 2011, dated 2014).

Ends that are not written are not given here.

Series [1] relates to corneal neovascularization. As to the kind of experiment: Corneal neovascularization after silver nitrate cauterization (Experimental Example 8). As to conditions: rat cornea, subconjunctival 20 μL; Avastin 10 mg/ml, peptide and conjugate […] peptide; NV control 90.8±5%. In kind it is in vivo, Albino Sprague Dawley male rats. How it is done:
All animal tests including this experiment were conducted in compliance with the guidelines of the Catholic University of Korea and the principles of laboratory animal care; NIH publication No. 85-23 revised in 1985.
The rat was put under anesthesia by an intra-peritoneal injection of a mixed solution of 20 mg/kg of ketamine hydrochloride and 2.5 mg/kg of xylazine hydrochloride. […] In 3 days after the cauterization, subconjunctival administration was conducted with 20 μL of each of 4 sample solutions (a normal control group, NV control (neovascularization control: a control group wherein angiogenesis was made to occur and no drug was treated thereon), a solution comprising Avastin (Roche) dissolved in PBS at a concentration of 10 mg/ml, a solution comprising anti-Flt1 peptide (GGNQWFI) (SEQ ID NO: 3) dissolved in PBS at a concentration of 2.5 mg/ml, and a solution comprising the hyaluronic acid-peptide conjugate with a lower peptide concentration obtained from Preparation Example 3 as dissolved in PBS at a concentration of 2.5 mg/ml based on the content of anti-Flt1 peptide). […] The obtained images were subjected to quantitative analysis with Image J program (Ver. 1.38, National Institute of Health, MD).

For another series, the system named is retinal blood vessel. Kind of series: Electron microscopy of retinal blood vessel in diabetic retinopathy. As to conditions: diabetic retinopathy rats. The series is classed as in vivo, Sprague Dawley (SD) male rats.
In series [2] the test system is methacholine airway hyper-responsiveness. Kind of series: Methacholine airway hyper-responsiveness (Penh) in OVA/LPS asthma model. The series is classed as in vivo, BALB/c mice. The following applies: 24 hours after the last allergen challenge, intranasal. How it is done: The biological activity of the hyaluronic acid-peptide conjugate with a lower peptide concentration (HA-GGNQWFI) in accordance with Preparation Example 3 was measured through the reaction to methacholine. Specifically, as to the airway hyper-responsiveness (AHR), the laboratory rat (in vivo) was made to keep exercising naturally without being put under anesthesia and the enhanced pause (Penh), the number reflecting the airway obstruction as represented by Mathematical Equation 1 was measured by using plethysmography. In this experimentation was used a non-invasive method wherein the measurement was conducted without correcting or putting the laboratory animal under anesthesia. Penh=[(Te/RT−1)×(PEF/PIF)] [Mathematical Equation 1]
In Mathematical Equation 1, Te represents an expiratory time (seconds), RT represents a relaxation time (seconds), PEF represents a peak expiratory flow […], and PIF represents a peak inspiratory flow (ml/s).
As the laboratory mouse, BALB/c mice (female, 6 week old, 5 per each group) were used. […]
The pulmonary function was measured on the 23th day by using the non-invasive whole body plethysmographs for the mouse that was not put under anesthesia. […] The aerosol was prepared by using an ultrasonic nebulizer and the laboratory mouse was exposed to methacholine for 3 minutes and then the Penh was measured for 5 minutes.

The nature of series [3]: TEM particle size of micelle. The series is classed as physicochemical. As to conditions: spherical particle, n=30. On the procedure:
The anti-Flt1 peptide (GGNQWFI) (SEQ ID NO: 3) and the hyaluronic acid-peptide conjugate with a lower peptide content as prepared from Preparation Example 3 were dissolved in 4004, of PBS to have a final peptide concentration of 1.25 mg/mL, respectively. The amount of the anti-Flt1 peptide contained in each solution was measured with a changeable UV transilluminator (DUT-260, Core Bio System, Korea) by using 312 nm of light source. The formation of the hyaluronic acid-peptide micelle in an aqueous solution was confirmed by using a transmission electron microscope (TEM) (Hitachi, Tokyo, Japan). For a TEM analysis, 10 μL of the hyaluronic acid-peptide conjugate solution was dropped onto a 300 mesh copper TEM grid with a carbon film and then was dried. The average particle size was calculated out from the diameters obtained from the images of 30 particles.
For a transmission electron microscope (TEM) (Hitachi, Tokyo, Japan) analysis, 10 μL of the solution of the drug-loaded, hyaluronic acid-peptide conjugate micelle was dropped onto a 300 mesh copper TEM grid with a carbon film and then was dried.

The next series deals with lung inflammation. As to the kind of experiment: Bronchoalveolar lavage (BAL) cellularity in OVA/LPS asthma model. In kind it is in vivo, BALB/c mice. The following applies: intranasal. On the procedure:
As the laboratory mouse, BALB/c mice (female, 6 week old, 5 per each group) were used. Five groups consisted of a normal control group (PBS-PBS: wherein asthma was not induced and the mice were treated with PBS), a negative control group (OVA/LPS10-OVA: wherein asthma was induced by using OVA and LPS, and the mice were treated with PBS only), a hyaluronic acid test group, an anti-Flt1 peptide (GGNQWFI) (SEQ ID NO: 3) test group, and a test group of the hyaluronic acid-peptide conjugate obtained from Preparation Example 3. The dose of the hyaluronic acid-peptide conjugate was changed between 10 […].
First, in order to make a mouse asthma model, each mouse was sensitized by intranasal administration of 75 μg of ovalbumin (OVA) (Calbiochem, La Jolla, Calif.) and 10 μg of lipopolysaccharide (LPS) (Calbiochem, La Jolla, Calif.) on 0 day, the first day, the second day, and the 7th day. Then, OVA (50 ug/head), hyaluronic acid (500 μg/head), anti-Flt1 peptide (GGNQWFI) (SEQ ID NO: 3) (10, 30, 100, 300, 1000 μg/head), and the hyaluronic acid-peptide conjugate with a low peptide content prepared from Preparation Example 3 ([…], based on the peptide content) were intranasally administered, respectively, after 14 days, 15 days, 21 days, 22 days to challenge. […]

Series [4] concerns corneal neovascularization. Kind of series: Corneal neovascularization, genistein-loaded micelle (Experimental Example 13). In kind it is in vivo, Albino Sprague Dawley male rats. The following applies: rat cornea; samples in PBS: Avastin 10 mg/ml, conjugate and micelle 3.2 mg/ml peptide; control group 86%.
In series [5] the test system is vascular hyperpermeability due to diabetic retinopathy. As to the kind of experiment: Vascular hyperpermeability due to diabetic retinopathy, genistein-loaded micelle (Experimental Example 14). The series is classed as in vivo, Sprague Dawley (SD) male rats. The following applies: normal = 1, negative control 2.54±0.20; Avastin 10 mg/ml; micelle 3.2 mg/ml peptide; four weeks after streptozotocin. How it is done: First, each rat was injected intraperitonially with 60 mg/kg of streptozotocin dissolved in 10 mM citrate buffer at pH 4.5 in order for diabetes to be induced. In three days after the injection of streptozotocin, the rat was determined to develop diabetes when its serum concentration of glucose was at least 300 mg/dL. In a week after the injection of streptozotocin, 10 μL of each sample solution was injected into the vitroeus body.

Take GGNQWFI [anti-Flt1 peptide, GGNQWFI]: the “average ratio of the neovascular area” value in series [1] is listed as 27±5.7%. In the series with retinal blood vessel, the “structure of the retinal blood vessel (electron microscope)” value was “the blood vessel had a rounded shape although the endothelial cell layer was thin”. Besides, the methacholine airway hyper-responsiveness result in series [2] was “inferior to the hyaluronic acid-peptide conjugate”.

Consider “HA-GGNQWFI: hyaluronic acid (MW 100 kDa) conjugated with GGNQWFI, 20 peptides per one molecule of HA-TBA (also: conjugated to hyaluronic acid, about 20 peptides per HA)”, for which the “average diameter by TEM” value in series [3] came to 234.5±20.6 nm. In addition, the “average ratio of the neovascular area” value in series [1] is 17.4±5.6%; in series [4] it was 30%. Further, the methacholine airway hyper-responsiveness entry in series [2] is recorded as “greatly reduced to a level similar to that of the normal control group”. In the series with lung inflammation (1000 μg/head), the “bronchoalveolar lavage (BAL) cellularity” value is “less than half of the cellularity in the negative control group”. In addition, in the series with lung inflammation (10-1000 per head based on peptide content), the “bronchoalveolar lavage (BAL) cellularity, dose dependence” value was “sharply decreased and was found to be dose-dependent”. Besides, the “average intensity of the fluorescence of retina relative to normal group (1)” value in series [5] stood at 1.58±0.17.
